Results: US10981884B2, “Process for the preparation of epoprostenol sodium of enhanced stability” (CHINOIN GYÓGYSZER ÉS VEGYÉSZETI TERMÉKEK GYÁRA ZRT., priority 2016, dated 2021)
Where “and” joins values, the source holds several entries; their conditions need not be identical. Identical values can stand only once.

Key:
[1] = aqueous solution at physiological pH; cited from earlier work
[2] = −30° C., white powder; cited from earlier work
[3] = pH of 1% aqueous lyophilisate solution; type: physicochemical
Method: (§1) For this purpose the excess alkali which may be present in the epoprostenol Na salt was removed with strongly acidic cation exchange DOWEX resin, to the aqueous solution of the salt not containing excess alkali, different amounts of sodium hydroxide were added and the obtained solutions were lyophilized. From the 1% aqueous lyophilisate solutions we measured the pH and started accelerated stability studies at room temperature, in closed glass vessels.

[4] = Storage stability in deep-freezer (−20±5° C.), 6-oxo-PGF1alpha impurity content by HPLC; type: physicochemical; conditions: for 6-oxo-PGF1alpha content (HPLC): deep-freezer (−20 ± 5° C.), 4 mass % NaOH excess
Method: (§2) Based on these unexpected experimental results we modified our new technology, we dissolved the funnel-wet, crystalline epoprostenol sodium salt in water, to the aqueous solution we added 2M NaOH solution in such an amount that the product, after lyophilisation contains 4 mass % excess of sodium hydroxide. The stability of the epoprostenol Na prepared by this new method is excellent, it can be stored in deep-freezer (−20±5° C.) for at least 3 years.

[5] = as above; type: physicochemical; conditions: 4-5-6% NaOH excesses compared
[6] = Storage stability in refrigerator (5±3° C.), 6-oxo-PGF1alpha impurity content by HPLC; type: physicochemical; conditions: for 6-oxo-PGF1alpha content (HPLC): refrigerator (5 ± 3° C.), 4 mass % NaOH excess
Method: as §2, with “The” for “The stability of the”, “the” for “this”, “may” for “is excellent, it can”, “refrigerator (5±3°” for “deep-freezer (−20±5°”, “6 months (Table 3.).” for “3 years.”

[7] = Accelerated stability study of lyophilisates at room temperature in closed glass vessels, active ingredient content followed by HPLC; type: physicochemical; conditions: closed glass vessel
Method: as §1, with “We investigated the effect of the sodium hydroxide amount used for the salt formation on the stability of the acid-sensitive epoprostenol Na. For” for “For”, “vessels. The change of the active ingredient content of the stability samples was followed by HPLC after 0, 24, 48 and 144 hours. From the measured active ingredient contents decomposition rates of epoprostenol Na have been calculated (Table 1.).” for “vessels.”

CCCCC[C@H](O)/C=C/[C@@H]1[C@H]2C/C(=C/CCCC(=O)O)O[C@H]2C[C@H]1O [prostacyclin]
half-life [1]: 3 to 4 min

CCCCC[C@H](O)/C=C/[C@@H]1[C@H]2C/C(=C/CCCC(=O)[O-])O[C@H]2C[C@H]1O.[Na+] [Epoprostenol Na, (5Z,9α,11α,13E,15S)-6,9-Epoxy-11,15-dihydroxyprosta-5,13-dien-1-acid sodium salt]
time lyophilisate remained stable [2]: at least two | pH (1% aqueous solution) ([3]; lyophilisate with 0.25 mass % NaOH added, sodium salt): 9.98 and 10.14 | pH (1% aqueous solution) ([3]; lyophilisate with 2.5 mass % NaOH added): 11.64 | pH (1% aqueous solution) ([3]; lyophilisate with 3.0 mass % NaOH added): 11.70 | pH (1% aqueous solution) ([3]; lyophilisate with 4.0 mass % NaOH added): 11.78 | pH (1% aqueous solution) ([3]; lyophilisate with 5.0 mass % NaOH added): 11.86 | pH (1% aqueous solution) ([3]; lyophilisate with 5.5 mass % NaOH added): 11.90 | pH (1% aqueous solution) ([3]; lyophilisate with 6.0 mass % NaOH added): 11.92 | pH (1% aqueous solution) ([3]; lyophilisate with 7.5 mass % NaOH added): 12.00 | pH (1% aqueous solution) ([3]; lyophilisate with 12.5 mass % NaOH added): 12.15 | 6-oxo-PGF1alpha content (HPLC) ([4]; month 0): 0.2 mass % | 6-oxo-PGF1alpha content (HPLC) ([4]; month 1): 0.2 mass % | 6-oxo-PGF1alpha content (HPLC) ([4]; month 3): 0.2 mass % | 6-oxo-PGF1alpha content (HPLC) ([4]; month 6): 0.2 mass % | 6-oxo-PGF1alpha content (HPLC) ([4]; month 9): 0.2 mass % | 6-oxo-PGF1alpha content (HPLC) ([4]; month 12): 0.2 mass % | 6-oxo-PGF1alpha content (HPLC) ([4]; month 18): 0.2 mass % | 6-oxo-PGF1alpha content (HPLC) ([4]; month 24): 0.2 mass % | 6-oxo-PGF1alpha content (HPLC) ([4]; month 36): 0.2 mass % | storage time (can be stored) ([4]; deep-freezer (−20±5° C.), lyophilisate with 4 mass % NaOH excess): at least 3 years | stability in the storage praxis [5]: equally good | 6-oxo-PGF1alpha content (HPLC) ([6]; month 0): 0.2 mass % | 6-oxo-PGF1alpha content (HPLC) ([6]; month 1): 0.3 mass % | 6-oxo-PGF1alpha content (HPLC) ([6]; month 3): 0.4 mass % | 6-oxo-PGF1alpha content (HPLC) ([6]; month 6): 0.2 mass % | storage time (may be stored) ([6]; refrigerator (5±3° C.), lyophilisate with 4 mass % NaOH excess): at least 6 months | PGI2Na decomposition ([7]; 0.25 mass % NaOH added, sodium salt): 34.9 %/month and 34.6 %/month | PGI2Na decomposition ([7]; 2.5 mass % NaOH added, sodium salt): 10.9 %/month and 10.6 %/month | PGI2Na decomposition ([7]; 3.0 mass % NaOH added): 8.8 %/month | PGI2Na decomposition ([7]; 4.0 mass % NaOH added): 4.5 %/month | PGI2Na decomposition ([7]; 5.0 mass % NaOH added): 1.7 %/month | PGI2Na decomposition ([7]; 5.5 mass % NaOH added): 1.3 %/month | PGI2Na decomposition ([7]; 6.0 mass % NaOH added): 1.7 %/month | PGI2Na decomposition ([7]; 7.5 mass % NaOH added): 3.1 %/month | PGI2Na decomposition ([7]; 12.5 mass % NaOH added): 3.5 %/month
